Source: patent US8846947B2, “Benzimidazoles and related analogs as sirtuin modulators” (GlaxoSmithKline LLC, priority 2008, dated 2014)

Biological target: T1, SIRT1 (Homo sapiens, UniProt Q96EB6)
T1 sequence (Q96EB6 1-747): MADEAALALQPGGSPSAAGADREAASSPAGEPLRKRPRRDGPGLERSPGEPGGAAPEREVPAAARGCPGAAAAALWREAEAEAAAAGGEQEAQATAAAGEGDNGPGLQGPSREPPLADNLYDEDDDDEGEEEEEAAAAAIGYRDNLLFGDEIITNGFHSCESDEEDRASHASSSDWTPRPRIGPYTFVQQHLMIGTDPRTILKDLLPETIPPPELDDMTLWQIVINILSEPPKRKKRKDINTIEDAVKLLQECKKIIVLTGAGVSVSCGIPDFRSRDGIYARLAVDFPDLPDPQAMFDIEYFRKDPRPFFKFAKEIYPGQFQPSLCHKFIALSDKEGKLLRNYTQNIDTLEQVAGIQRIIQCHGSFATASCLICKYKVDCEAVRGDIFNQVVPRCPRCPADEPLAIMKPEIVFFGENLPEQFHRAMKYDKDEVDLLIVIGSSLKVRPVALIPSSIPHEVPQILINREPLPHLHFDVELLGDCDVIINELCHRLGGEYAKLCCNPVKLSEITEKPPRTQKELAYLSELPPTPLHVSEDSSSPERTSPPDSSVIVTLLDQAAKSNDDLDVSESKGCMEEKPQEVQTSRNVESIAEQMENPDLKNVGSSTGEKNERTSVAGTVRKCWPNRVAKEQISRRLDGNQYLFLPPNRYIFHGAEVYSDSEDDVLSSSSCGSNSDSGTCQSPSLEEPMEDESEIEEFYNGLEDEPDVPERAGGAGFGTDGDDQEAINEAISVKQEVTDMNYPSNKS
Assay: Mass spectrometry based SIRT1 deacetylase activation assay (acetylated p53-derived peptide substrate)
Assay type: biochemical
Details: 0.5 μM peptide substrate, 120 μM βNAD+, 10 nM SIRT1, 25 minutes at 25° C.

EC1.5	Fold Act. (percent maximum fold activation)	Structure (SMILES)
A (EC1.5<1.0 uM)	A (Fold activation >200%)	O=C(Nc1cccc(CN2CCOCC2)n1)c1cccc2[nH]c(-c3ccc(Cl)cc3C(F)(F)F)nc12 [Compound 675]
A (EC1.5<1.0 uM)	A (Fold activation >200%)	O=C(Nc1ccc(CN2CCOCC2)cn1)c1cccc2[nH]c(-c3ccc(Cl)cc3C(F)(F)F)nc12 [Compound 676]
A (EC1.5<1.0 uM)	A (Fold activation >200%)	O=C(Nc1cccc(CN2CCOCC2)n1)c1cccc2[nH]c(-c3cc(F)ccc3C(F)(F)F)nc12 [Compound 677]
A (EC1.5<1.0 uM)	A (Fold activation >200%)	O=C(Nc1cccc(OCC(O)CO)c1)c1cccc2[nH]c(-c3ccc(Cl)cc3C(F)(F)F)nc12 (stereo not drawn) [Compound 678]
A (EC1.5<1.0 uM)	A (Fold activation >200%)	O=C(Nc1cccc(OCC(O)CO)c1)c1cccc2[nH]c(-c3ccc(F)cc3C(F)(F)F)nc12 (stereo not drawn) [Compound 679]
A (EC1.5<1.0 uM)	A (Fold activation >200%)	O=C(Nc1cccc(OCC(O)CO)c1)c1cccc2[nH]c(-c3cc(F)ccc3C(F)(F)F)nc12 (stereo not drawn) [Compound 680]
A (EC1.5<1.0 uM)	A (Fold activation >200%)	O=C(Nc1nc(CN2CCOCC2)cs1)c1cccc2[nH]c(-c3ccc(F)cc3C(F)(F)F)nc12 [Compound 681, 2-(4-fluoro-2-(trifluoromethyl)phenyl)-N-(4-(morpholinomethyl)thiazol-2-yl)-1H-benzo[d]imidazole-4-carboxamide]
A (EC1.5<1.0 uM)	A (Fold activation >200%)	O=C(Nc1cccc(CN2CCNCC2)n1)c1cccc2[nH]c(-c3ccccc3C(F)(F)F)nc12 [Compound 682]
A (EC1.5<1.0 uM)	A (Fold activation >200%)	O=C(Nc1ccc(CN2CCCC2)nc1)c1cccc2[nH]c(-c3ccccc3C(F)(F)F)nc12 [Compound 683]
A (EC1.5<1.0 uM)	A (Fold activation >200%)	O=C(Nc1ccc(CN2CCOCC2)nc1)c1cccc2[nH]c(-c3ccc(Cl)cc3C(F)(F)F)nc12 [Compound 684]
A (EC1.5<1.0 uM)	A (Fold activation >200%)	O=C(Nc1ccc(CN2CCCC2)nc1)c1cccc2[nH]c(-c3ccc(Cl)cc3C(F)(F)F)nc12 [Compound 685]
A (EC1.5<1.0 uM)	A (Fold activation >200%)	O=C(Nc1ccc(CN2CCOCC2)nc1)c1cccc2[nH]c(-c3cc(F)ccc3C(F)(F)F)nc12 [Compound 686, 2-(5-fluoro-2-(trifluoromethyl)phenyl)-N-(6-(morpholinomethyl)pyridin-3-yl)-1H-benzo[d]imidazole-4-carboxamide]
A (EC1.5<1.0 uM)	A (Fold activation >200%)	O=C(Nc1ccc(CN2CCCC2)nc1)c1cccc2[nH]c(-c3cc(F)ccc3C(F)(F)F)nc12 [Compound 687]
C (EC1.5 >25 uM)	B (Fold Activation <200%)	O=C(Nc1ccccn1)c1cccc2[nH]c(-c3cc(N4CCCC4)ccc3C(F)(F)F)nc12 [Compound 688]
A (EC1.5<1.0 uM)	A (Fold activation >200%)	O=C(Nc1nccs1)c1cc(N2CCOCC2)cc2[nH]c(-c3ccc(F)cc3C(F)(F)F)nc12 [Compound 689]
A (EC1.5<1.0 uM)	A (Fold activation >200%)	O=C(Nc1ccccn1)c1cc(N2CCOCC2)cc2[nH]c(-c3ccc(F)cc3C(F)(F)F)nc12 [Compound 690]
A (EC1.5<1.0 uM)	A (Fold activation >200%)	O=C(Nc1cccnc1)c1cc(N2CCOCC2)cc2[nH]c(-c3ccc(F)cc3C(F)(F)F)nc12 [Compound 691]
A (EC1.5<1.0 uM)	A (Fold activation >200%)	O=C(Nc1cccnn1)c1cc(N2CCOCC2)cc2[nH]c(-c3ccc(F)cc3C(F)(F)F)nc12 [Compound 692]
B (EC1.5 1-25 uM)	B (Fold Activation <200%)	O=C(Nc1nccs1)c1cncc2[nH]c(-c3ccc(F)cc3C(F)(F)F)nc12 [Compound 693, 2-(4-fluoro-2-trifluoromethyl-phenyl)-3H-imidazo[4,5-c]pyridine-7-carboxylic acid thiazol-2-ylamide]
B (EC1.5 1-25 uM)	B (Fold Activation <200%)	O=C(Nc1ccccn1)c1cncc2[nH]c(-c3ccc(F)cc3C(F)(F)F)nc12 [Compound 694]

EC1.5	Fold Act. (percent maximum fold activation)	Structure (SMILES)
A (EC1.5<1.0 uM)	A (Fold activation >200%)	O=C(Nc1cccnc1)c1cncc2[nH]c(-c3ccc(F)cc3C(F)(F)F)nc12 [Compound 695]
B (EC1.5 1-25 uM)	A (Fold activation >200%)	O=C(Nc1cccnn1)c1cncc2[nH]c(-c3ccc(F)cc3C(F)(F)F)nc12 [Compound 696]
A (EC1.5<1.0 uM)	A (Fold activation >200%)	Cc1cnc(NC(=O)c2cncc3[nH]c(-c4ccc(F)cc4C(F)(F)F)nc23)s1 [Compound 697]
A (EC1.5<1.0 uM)	A (Fold activation >200%)	O=C(Nc1cccc(OC[C@H](O)CO)c1)c1cccc2[nH]c(-c3ccc(Cl)cc3C(F)F)nc12 [Compound 698]
A (EC1.5<1.0 uM)	A (Fold activation >200%)	O=C(Nc1cccc(OC[C@@H](O)CO)c1)c1cccc2[nH]c(-c3ccc(Cl)cc3C(F)F)nc12 [Compound 699]
A (EC1.5<1.0 uM)	A (Fold activation >200%)	O=C(Nc1cccc(OC[C@@H](O)CO)c1)c1cccc2[nH]c(-c3ccccc3C(F)F)nc12 [Compound 700]
A (EC1.5<1.0 uM)	A (Fold activation >200%)	O=C(Nc1nc(CN2CCOCC2)cs1)c1cccc2[nH]c(-c3cc(F)ccc3C(F)(F)F)nc12 [Compound 701]
A (EC1.5<1.0 uM)	A (Fold activation >200%)	O=C(Nc1nccs1)c1cccc2[nH]c(-c3cnccc3C(F)(F)F)nc12 [Compound 702]
A (EC1.5<1.0 uM)	A (Fold activation >200%)	Cc1cnc(NC(=O)c2cccc3[nH]c(-c4cnccc4C(F)(F)F)nc23)s1 [Compound 703, N-(5-methylthiazol-2-yl)-2-(4-(trifluoromethyl)pyridin-3-yl)-1H-benzo[d]imidazole-4-carboxamide]
A (EC1.5<1.0 uM)	A (Fold activation >200%)	O=C(Nc1ccccn1)c1cccc2[nH]c(-c3cnccc3C(F)(F)F)nc12 [Compound 704]
A (EC1.5<1.0 uM)	A (Fold activation >200%)	O=C(Nc1cccc(OCC(O)CO)c1)c1cccc2[nH]c(-c3ccc(F)cc3C(F)(F)F)nc12 (stereo not drawn) [Compound 705]
A (EC1.5<1.0 uM)	A (Fold activation >200%)	CC1(C)CN(c2ccc(-c3nc4c(C(=O)Nc5nccs5)cccc4[nH]3)c(C(F)(F)F)c2)CCO1 [Compound 706]
A (EC1.5<1.0 uM)	A (Fold activation >200%)	CC1(C)CN(c2ccc(-c3nc4c(C(=O)Nc5ccccn5)cccc4[nH]3)c(C(F)(F)F)c2)CCO1 [Compound 707]
A (EC1.5<1.0 uM)	A (Fold activation >200%)	CC1(C)CN(c2ccc(C(F)(F)F)c(-c3nc4c(C(=O)Nc5nccs5)cccc4[nH]3)c2)CCO1 [Compound 708]
A (EC1.5<1.0 uM)	A (Fold activation >200%)	CC1(C)CN(c2ccc(C(F)(F)F)c(-c3nc4c(C(=O)Nc5ccccn5)cccc4[nH]3)c2)CCO1 [Compound 709]
A (EC1.5<1.0 uM)	A (Fold activation >200%)	COCCN1CCN(c2cccc(-c3nc4c(C(=O)Nc5nccs5)cccc4[nH]3)c2)CC1 [Compound 710]
A (EC1.5<1.0 uM)	A (Fold activation >200%)	CC1(C)CN(CCOc2ccccc2-c2nc3c(C(=O)Nc4nccs4)cccc3[nH]2)CCO1 [Compound 711]
B (EC1.5 1-25 uM)	B (Fold Activation <200%)	CC1(C)CN(CCOc2ccccc2-c2nc3c(C(=O)Nc4ccccn4)cccc3[nH]2)CCO1 [Compound 712]
A (EC1.5<1.0 uM)	A (Fold activation >200%)	O=C(Nc1cccc(OC[C@H](O)CO)c1)c1cncc2[nH]c(-c3ccccc3C(F)F)nc12 [Compound 713]
